Measured values taken from PubChem BioAssay AID1625 (Sanford-Burnham Center for Chemical Genomics, 2009).
pEC50: −log10 of the molar value. Activity calls are given as the source filed them.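 How the source made its calls: active means z-score above 3 at 5 µM with at least 500 cells counted in the well; inconclusive means wells under 500 cells, flagged as cytotoxic or low count; inactive means the rest.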

test system: MIN6 insulin promoter-GFP reporter, high-content imaging; experiment: insulin promoter activators in MIN6 cells, imaging, high-content screening, mouse beta cells (AID 1625)

| SMILES | pEC50 | EC50 |
| --- | --- | --- |
| O=C1S/C(=C/c2ccc(N3CCOCC3)o2)C(=O)N1Cc1c(F)cccc1Cl | 5.75 | – |
| Oc1ccc(/C=N/Nc2ccnc3cc(Cl)ccc23)c(O)c1 | – | > 16 µM (inactive) |
| COc1ccc(NC(=O)/C(C#N)=C\c2ccc(N3CCOCC3)o2)cc1 | 5.04 | – |
| Cn1cc(/C=C2\SC(=S)N(NC(=O)c3ccccc3Cl)C2=O)c2ccccc21 | – | > 16 µM (inactive) |
| CC(=O)c1sc2nc(-c3cccs3)cc(C(F)(F)F)c2c1N | 5.12 | – |
| CC(C)(C)C(=O)/C=c1\s/c(=C\c2ccc(-c3ccc([N+](=O)[O-])cc3)o2)c(=O)n1CC(=O)NC(N)=O | 6.08 | – |
| CC(C)N1CC=C2C(C#N)=C(N)C(C#N)(C#N)C(c3ccccc3)C2C1 (stereo unspecified) | 5.22 | – |
| CCCCN1C(=O)/C(=C/C=C2\N(C)c3ccccc3C2(C)C)SC1=S | 5.25 | – |
| CN1CC=C2C(C#N)=C(N)C(C#N)(C#N)C(c3cccc(Cl)c3Cl)C2C1 (stereo unspecified) | – | 11.9 µM (inactive) |
| CC1=CN2C(=N)/C(=C/c3ccc([N+](=O)[O-])o3)C(=O)N=C2S1 | – | > 16 µM (inactive) |
| CN1C(=O)C(=Cc2ccc(N3CCCCC3)o2)C(=O)N(C)C1=S | – | > 16 µM (inactive) |
| O=C1/C(=C/c2ccc(N3CCOCC3)o2)SC(=Nc2ccccc2)N1CCc1c[nH]c2ccccc12 | 6.15 | – |
| CN(C)c1ccc(/C=C/C(=O)c2c(O)c3ccccc3oc2=O)cc1 | 6.14 | – |
| Cc1ccc(-c2ccc(/C=C(\C#N)C(=O)Nc3cc(C)nn3-c3ccccc3)o2)cc1 | – | > 16 µM (inactive) |
| CC(C)N1CCc2c(sc(NC(=O)c3cc4cc([N+](=O)[O-])ccc4s3)c2C(N)=O)C1 | – | > 16 µM (inactive) |
| CCN1C=CC2=C(C#N)C(N)C(C#N)(C#N)C(c3ccccc3C(F)(F)F)C2C1 (stereo unspecified) | 5.33 | – |
| CCOC(=O)c1nn(-c2ccc(Cl)cc2Cl)c(=N)c(C#N)c1C | 5.14 | – |
| CCCN1CC=C2C(C#N)=C(N)C(C#N)(C#N)C(c3cc(OC)ccc3OC)C2C1 (stereo unspecified) | 5.30 | – |
| C=CCN1C(=O)c2cccc3c(N4CCCCC4)ccc(c23)C1=O | 5.27 | – |
| O=[N+]([O-])c1ccc(N/N=C/c2sc(N3CCOCC3)nc2-c2ccccc2)c(S(=O)(=O)Nc2ccccc2Cl)c1 | – | > 16 µM (inactive) |
| CCCCN1C(=O)/C(=C/C=C2/CC(C)(C)CN2C)SC1=S | 5.17 | – |
| CN1CC=C2C(C#N)=C(N)C(C#N)(C#N)C(Cc3ccccc3)C2C1 (stereo unspecified) | – | 11.7 µM (inactive) |
| COc1cc(OC)c(-c2c3cc(O)c(=O)cc-3oc3cc(O)c(O)cc23)cc1OC | 5.07 | – |
| N#C/C(=C/c1ccc(N2CCOCC2)o1)C(=O)Nc1ccccc1 | 5.01 | – |

| SMILES | pEC50 | EC50 |
| --- | --- | --- |
| CCCCCCN1C=CC(=C/C=C(\C#N)C(=O)OCC)C=C1 | – | 11 µM (inactive) |
| CCOC(=O)c1sc2cc([N+](=O)[O-])cc(SCC(C)C)c2c1N | – | > 16 µM (inactive) |
| CCNc1ccc2noc3c2c1C(=O)c1ccccc1-3 | – | > 16 µM (inactive) |
| O=C(OCCN1C(=O)c2cccc3c(N4CCOCC4)ccc(c23)C1=O)c1ccc(Cl)cc1Cl | – | 12.1 µM (inactive) |
| CN(C)c1ccc(/C=C2\SC(=O)N(CC(O)Cn3c4ccccc4c4ccccc43)C2=O)cc1 (stereo unspecified) | – | > 16 µM (inactive) |
| CCCCN1C(=O)C2(NNc3ccccc3O2)c2ccccc21 (stereo unspecified) | – | > 16 µM (inactive) |
| CC1=C/C(=C\C=C(C#N)C#N)N(C)c2ccccc21 | – | > 16 µM (inactive) |
| N#C/C(=C\c1ccc(N2CCOCC2)o1)c1nc2ccccc2[nH]1 | 5.47 | – |
| Cc1n[nH]c(C)c1N1C(=O)c2cccc3c(N4CCCCCC4)ccc(c23)C1=O | 5.04 | – |
| N#C/C(=C\c1ccc(N2CCOCC2)o1)c1ccccc1 | – | > 16 µM (inactive) |
| Cc1csc(NC(=O)c2sc3nc(-c4cccs4)ccc3c2N)n1 | – | > 16 µM (inactive) |
| N#C/C(=C\N1CCN(Cc2ccc3c(c2)OCO3)CC1)c1nc2ccccc2s1 | – | > 16 µM (inactive) |
| CCCN1C(=O)S/C(=C\c2ccc(N3CCOCC3)o2)C1=O | – | 13.9 µM (inactive) |
| Nc1c(C(=O)N/N=C/c2cccnc2)oc2nc(-c3ccccc3)cc(-c3ccco3)c12 | – | > 16 µM (inactive) |
| COc1ccccc1N/C=C/c1onc(C)c1[N+](=O)[O-] | 5.65 | – |
| CCOC(=O)CC1C(=O)NCCN1c1nc2ccc(C)cn2c(=O)c1/C=C1\SC(=S)N(CC(C)C)C1=O (stereo unspecified) | 5.16 | – |
| Nc1c(C(=O)c2cccs2)sc2nsc(SCCN3CCCCC3)c12 | 5.02 | – |
| O=C(O)c1cc(-c2ccc(/C=C3/SC(=S)N(Cc4ccccc4)C3=O)o2)ccc1Cl | – | 10.5 µM (inactive) |
| O=C(/C=C/c1c[nH]c2ccccc12)c1c(O)n(CCc2ccccc2)c(=O)[nH]c1=O | – | > 16 µM (inactive) |
| CCN1/C(=C/c2ccc3cc(C)ccc3[n+]2CC)Sc2ccccc21 | 5.96 | – |
| CN(C)c1ccc(/C=C2\C(=N)N3C(=NC2=O)Sc2cc(S(C)(=O)=O)ccc23)cc1 | – | > 16 µM (inactive) |
| CCN(CC)c1ccc2cc(C(N)=O)/c(=N\NC(=O)c3ccncc3)oc2c1 | 5.01 | – |
| N#C/C(=C/c1ccc(N2CCOCC2)o1)c1ccc(Br)cc1 | – | 12.8 µM (inactive) |
| CCOC(=O)C1=C(C)NC(=O)NC1c1ccc(N2CCC(c3ccccc3)=N2)cc1 (stereo unspecified) | – | > 16 µM (inactive) |

| SMILES | pEC50 | EC50 |
| --- | --- | --- |
| CN1/C(=C\C=C2C(=O)NC(=S)NC2=O)C(C)(C)c2ccccc21 | 5.41 | – |
| N#C/C(=C/c1ccc(-c2ccc(S(N)(=O)=O)cc2)o1)c1nc2ccccc2s1 | – | 10 µM (inactive) |
| N#C/C(=C/c1ccc(N2CCCCC2)o1)C(=O)Nc1ccc(Cl)cc1 | 6.32 | – |
| CCOC(=O)N1CCN(S(=O)(=O)c2ccc3c(c2)oc(=O)n3C)CC1 | – | > 16 µM (inactive) |
| CN1CC=C2C(C#N)=C(N)C(C#N)(C#N)[C@H](c3cccc(Cl)c3)C2C1 (stereo partly specified) | 5.09 | – |
| Cn1c(/C(C#N)=C/c2ccc(-c3ccc(S(N)(=O)=O)cc3)o2)nc2ccccc21 | – | > 16 µM (inactive) |
| Cc1nnc(NC(=O)c2sc3nc(-c4cccs4)cc(C(F)(F)F)c3c2N)s1 | 5.04 | – |
| Cc1c(-c2ccc(O)cc2)nc2nc(-c3ccccc3)c(-c3ccccc3)nn12 | 5.27 | – |
| O=C1c2cccc3c(O)ccc(c23)C(=O)N1Cc1ccccc1 | 5.25 | – |
| COc1cc(N2CCCC2)c(OC)cc1/C=C(/C#N)c1cccc(Br)c1 | 5.32 | – |
| COc1cc2c3nnc(-c4ccccc4)c-3cn(Cc3ccccc3F)c2cc1OC | 5.51 | – |
| Cn1c(=O)c(N)c2c3c(c(Br)ccc31)C(=O)c1ccccc1-2 | 5.05 | – |
| O=C1S/C(=C\c2ccc(N3CCOCC3)o2)C(=O)N1Cc1ccc(F)cc1 | – | > 16 µM (inactive) |
| O=c1[nH]c2ccccc2nc1/C=C/c1ccc(F)cc1 | – | > 16 µM (inactive) |
| N#CC1CC(c2ccc([N+](=O)[O-])cc2)=NN1c1ccc([N+](=O)[O-])cc1 (stereo unspecified) | – | > 16 µM (inactive) |
| CN(C)c1ccc(/C=C2\N=C(c3ccc(Cl)c([N+](=O)[O-])c3)NC2=O)cc1 | – | > 16 µM (inactive) |
| CCOC(=O)/C(=C\C=C1/Sc2cc(OCC)c(OCC)cc2N1CC)C(C)=O | 5.17 | – |
| Cc1cccc(N=Cc2[nH]c3ccc(Br)c(Cl)c3c2O)c1 | 5.31 | – |
| Cc1cc2c(C(F)(F)F)cc(=O)oc2c2c1NCCC2 | – | > 16 µM (inactive) |
| COc1ccc(/C=C2\C(=O)NC(=S)N2C(=O)c2ccc(F)cc2)cc1 | – | > 16 µM (inactive) |
| O=C1c2cccc3c(N4CCCCC4)ccc(c23)C(=O)N1c1ccccc1O | – | > 16 µM (inactive) |
| CCOC(=O)N1CCN(/C=C(\C#N)c2nc3ccccc3s2)CC1 | – | > 16 µM (inactive) |
| CCOC(=O)/C(C#N)=C/C=C1\C=Cc2ccccc2N1CC | – | > 16 µM (inactive) |
